Legend:
Assay in all cases: relative viability (nuclei count vs DMSO), 5 days (fraction); higher = more cells survive
HCC-78 = tested on: HCC-78
Outline: (§1)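 Values are medians from duplicate plates. Each reflects relative viability, defined as the nuclei count of treated wells over that of vehicle wells. Lung cancer cell lines in 1536-well plates were pin-tool dosed one day after seeding with one drug alone or with a fixed anchor-drug dose plus five library-drug doses (not always all listed) in √10 steps, then fixed, stained and imaged at 4× after 5 days.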

NCI-H1623 = tested on: NCI-H1623
Outline: as §1

NCI-H1648 = tested on: NCI-H1648
Outline: as §1

NCI-H2009 = tested on: NCI-H2009
Outline: as §1

NCI-H2342 = tested on: NCI-H2342
Outline: as §1

NCI-H358 = tested on: NCI-H358
Outline: as §1

NCI-H460 = tested on: NCI-H460
Outline: as §1

NCI-H522 = tested on: NCI-H522
Outline: as §1

NCI-H661 = tested on: NCI-H661
Outline: as §1

Structure (SMILES): CC(=O)O[C@@]12CO[C@@H]1C[C@H](O)[C@@]1(C)C(=O)[C@H](O)C3=C(C)[C@@H](OC(=O)[C@H](O)[C@@H](NC(=O)OC(C)(C)C)c4ccccc4)C[C@@](O)([C@@H](OC(=O)c4ccccc4)[C@H]21)C3(C)C [Docetaxel] + Cc1cc(Nc2cc(N3CCN(C)CC3)nc(Sc3ccc(NC(=O)C4CC4)cc3)n2)n[nH]1 [Tozasertib] (partner 0.1 µM)
- relative viability (HCC-78; first compound 0.0002 µM): 0.386
- relative viability (HCC-78; first compound 0.000632 µM): 0.436
- relative viability (HCC-78; first compound 0.002 µM): 0.278
- relative viability (HCC-78; first compound 0.006325 µM): 0.344
- relative viability (HCC-78; first compound 0.02 µM): 0.368
- relative viability (NCI-H1623; first compound 0.0002 µM): 0.453
- relative viability (NCI-H1623; first compound 0.000632 µM): 0.367
- relative viability (NCI-H1623; first compound 0.002 µM): 0.409
- relative viability (NCI-H1623; first compound 0.006325 µM): 0.42
- relative viability (NCI-H1623; first compound 0.02 µM): 0.377
- relative viability (NCI-H1648; first compound 0.0002 µM): 0.449
- relative viability (NCI-H1648; first compound 0.000632 µM): 0.509
- relative viability (NCI-H1648; first compound 0.002 µM): 0.28
- relative viability (NCI-H1648; first compound 0.006325 µM): 0.195
- relative viability (NCI-H1648; first compound 0.02 µM): 0.155
- relative viability (NCI-H2009; first compound 0.0002 µM): 0.626
- relative viability (NCI-H2009; first compound 0.000632 µM): 0.747
- relative viability (NCI-H2009; first compound 0.002 µM): 0.682
- relative viability (NCI-H2009; first compound 0.006325 µM): 0.553
- relative viability (NCI-H2009; first compound 0.02 µM): 0.302
- relative viability (NCI-H2342; first compound 0.0002 µM): 0.584
- relative viability (NCI-H2342; first compound 0.000632 µM): 0.539
- relative viability (NCI-H2342; first compound 0.002 µM): 0.543
- relative viability (NCI-H2342; first compound 0.006325 µM): 0.466
- relative viability (NCI-H2342; first compound 0.02 µM): 0.297
- relative viability (NCI-H358; first compound 0.0002 µM): 0.114
- relative viability (NCI-H358; first compound 0.000632 µM): 0.112
- relative viability (NCI-H358; first compound 0.006325 µM): 0.137
- relative viability (NCI-H358; first compound 0.02 µM): 0.117
- relative viability (NCI-H460; first compound 0.0002 µM): 0.358
- relative viability (NCI-H460; first compound 0.000632 µM): 0.368
- relative viability (NCI-H460; first compound 0.002 µM): 0.0923
- relative viability (NCI-H460; first compound 0.006325 µM): 0.0604
- relative viability (NCI-H460; first compound 0.02 µM): 0.0207
- relative viability (NCI-H522; first compound 0.0002 µM): 0.559
- relative viability (NCI-H522; first compound 0.000632 µM): 0.451
- relative viability (NCI-H522; first compound 0.002 µM): 0.527
- relative viability (NCI-H522; first compound 0.006325 µM): 0.551
- relative viability (NCI-H522; first compound 0.02 µM): 0.585
- relative viability (NCI-H661; first compound 0.0002 µM): 0.367
- relative viability (NCI-H661; first compound 0.000632 µM): 0.387
- relative viability (NCI-H661; first compound 0.002 µM): 0.432
- relative viability (NCI-H661; first compound 0.006325 µM): 0.352
- relative viability (NCI-H661; first compound 0.02 µM): 0.4

Structure (SMILES): Nc1ccn([C@@H]2O[C@H](CO)[C@@H](O)[C@@H]2O)c(=O)n1 [Cytarabine] + Cc1cc(Nc2cc(N3CCN(C)CC3)nc(Sc3ccc(NC(=O)C4CC4)cc3)n2)n[nH]1 [Tozasertib] (partner 0.1 µM)
- relative viability (HCC-78; first compound 0.005 µM): 0.518
- relative viability (HCC-78; first compound 0.01581 µM): 0.489
- relative viability (HCC-78; first compound 0.05 µM): 0.389
- relative viability (HCC-78; first compound 0.1581 µM): 0.333
- relative viability (HCC-78; first compound 0.5 µM): 0.253
- relative viability (NCI-H1623; first compound 0.005 µM): 0.325
- relative viability (NCI-H1623; first compound 0.01581 µM): 0.264
- relative viability (NCI-H1623; first compound 0.05 µM): 0.284
- relative viability (NCI-H1623; first compound 0.1581 µM): 0.199
- relative viability (NCI-H1623; first compound 0.5 µM): 0.178
- relative viability (NCI-H1648; first compound 0.005 µM): 0.456
- relative viability (NCI-H1648; first compound 0.01581 µM): 0.517
- relative viability (NCI-H1648; first compound 0.05 µM): 0.484
- relative viability (NCI-H1648; first compound 0.1581 µM): 0.265
- relative viability (NCI-H1648; first compound 0.5 µM): 0.32
- relative viability (NCI-H2009; first compound 0.005 µM): 0.685
- relative viability (NCI-H2009; first compound 0.01581 µM): 0.795
- relative viability (NCI-H2009; first compound 0.05 µM): 0.786
- relative viability (NCI-H2009; first compound 0.1581 µM): 0.566
- relative viability (NCI-H2009; first compound 0.5 µM): 0.308
- relative viability (NCI-H2342; first compound 0.005 µM): 0.507
- relative viability (NCI-H2342; first compound 0.01581 µM): 0.616
- relative viability (NCI-H2342; first compound 0.05 µM): 0.496
- relative viability (NCI-H2342; first compound 0.1581 µM): 0.506
- relative viability (NCI-H2342; first compound 0.5 µM): 0.459
- relative viability (NCI-H358; first compound 0.005 µM): 0.102
- relative viability (NCI-H358; first compound 0.01581 µM): 0.0922
- relative viability (NCI-H358; first compound 0.05 µM): 0.1
- relative viability (NCI-H358; first compound 0.1581 µM): 0.097
- relative viability (NCI-H358; first compound 0.5 µM): 0.0847
- relative viability (NCI-H460; first compound 0.005 µM): 0.438
- relative viability (NCI-H460; first compound 0.01581 µM): 0.362
- relative viability (NCI-H460; first compound 0.05 µM): 0.196
- relative viability (NCI-H460; first compound 0.1581 µM): 0.0434
- relative viability (NCI-H460; first compound 0.5 µM): 0.0361
- relative viability (NCI-H522; first compound 0.005 µM): 0.556
- relative viability (NCI-H522; first compound 0.01581 µM): 0.5
- relative viability (NCI-H522; first compound 0.05 µM): 0.476
- relative viability (NCI-H522; first compound 0.1581 µM): 0.482
- relative viability (NCI-H522; first compound 0.5 µM): 0.572
- relative viability (NCI-H661; first compound 0.005 µM): 0.371
- relative viability (NCI-H661; first compound 0.01581 µM): 0.368
- relative viability (NCI-H661; first compound 0.05 µM): 0.351
- relative viability (NCI-H661; first compound 0.1581 µM): 0.349
- relative viability (NCI-H661; first compound 0.5 µM): 0.364

Reference: the supplement of paper PMC10307832
